According to patent US20050215562A1, “Methods for treating protein aggregation disorders” (priority 2003, published 2005):

Target: T1, NAC peptide (Homo sapiens, UniProt P37840)
T1 construct: a 35 amino acid peptide corresponding to residues 61 to 95 of the α-synuclein protein; made in house; host or cells: chemical solid-phase peptide synthesis (Fmoc), not expressed
Experiment: Circular dichroism (CD) analysis of NAC peptide conformation after incubation with test compounds (fibrillogenesis assay)
Format: biochemical
Set-up: key to CD Result (NAC conformation observed): Random Coil: signifies that the NAC in the sample was observed to have been maintained in its original random coil conformation indicating that the compound coincubated with NAC is active; signifies that the compound was not able to prevent the shift from random coil to β-sheet; β-sheet/β-turn: signifies that the compound was not able to prevent the shift from random coil to β-sheet; Transition: signifies that the NAC was observed to be in the process of converting from random coil to β-sheet indicating that the compound was able to slow down the conformational change and indicates activity
Settings: for CD Result (NAC conformation observed): 125 μL of 40 μM NAC peptide with 125 μL of 200 μM test compound, pH 7.4, 37° C., conformations over repeated trials; for Activity (CD): active if it prevents the transition to β-turn/β-sheet in 50% or more of the trials; for Activity: active trials / trials: number of CD trials in which transition to β-turn/β-sheet was prevented, over trials run
Method: 2 mM Solutions were prepared in TBSA buffer (Tris 0.02 M, NaCl 0.15 M, NaN3 0.005%, pH 7.4) and stored at 4° C. For the assays, compounds were diluted to the desired concentrations in TBSAE buffer (Tris 0.02 M, NaCl 0.15 M, NaN3 0.005%, EDTA 100 μM, pH 7.4) and combined with the NAC peptides.
Fibrillogenesis assays were employed to identify test compounds that inhibit NAC's ability to assemble into fibers. Following removal of HFIP by evaporation under N2 gas, 20 μM NAC peptide is incubated in the assay buffer (0.02M Tris, 0.15 M NaCl, 0.005% NaN3, 100 uM EDTA) at 37° C. in a Perkin-Elmer HTS 7000 plus microplate reader with shaking for 1 minute every twenty minutes. The presence of fibers can be monitored by three different methods.
The following assays were set up in clear polystyrene 96 well microplates by combining 125 μL of 40 μM NAC peptide with 125 μL of 200 μM test compound in 0.02M Tris, 0.15 M NaCl, 0.005% NaN3, […]. The microplates were sealed with a plastic sheet and incubated at 37° C. in a Perkin-Elmer HTS 7000 microplate reader with shaking for 1 minute, every 20 minutes. • Thioflavin T Analysis. To perform this assay 5 μM Thioflavin T is added to the NAC assembly conditions described above. The fluorescence is measured at 430 excitation/485 emission every twenty minutes with a Perkin-Elmer HTS microplate reader for the duration of the assay. […] This assay allows for the identification of compounds that can inhibit this increase in fluorescence upon incubation. • Turbidity Analysis. Alternatively, NAC peptide that has been incubated with test compounds in the appropriate assembly conditions can be analyzed by reading the absorbance at 405 nm to follow the turbidity of the solution which is also an indication of the formation of aggregates. • Circular Dichroism (CD) Analysis. […] This assay allows for the identification of compounds that can prevent NAC from adopting a β-sheet/β-turn conformation upon incubation. • At the appropriate time point, during the incubation, the test solutions were transferred to 0.1-cm path length quartz cuvettes and scanned by CD spectroscopy between 190 and 260 nm, with a resolution of 0.1 nm and a bandwidth of 1 nm using a Jasco J-715 spectropolarimeter at 37° C. […] At the time point at which CD scans are performed a 3 μl aliquot is removed from the sample, spotted onto a Formvar grid and then negatively stained with 4% uranyl acetate. The grids were examined for the presence of fibrils and amorphous aggregates using a JOEL 2000 transmission electron microscope at a 25,000 × magnification. This assay can be used to confirm the absence of fibers in the presence of compounds which inhibit NAC assembly by ThT and CD. The final results were obtained by averaging 10 complete sectors.
For compounds that have been tested multiple times, a compound is classified as active if it prevents the transition to β-turn/β-sheet in 50% or more of the trials.

O=S(=O)(O)CC(O)CNC1CCCCC1 (stereo not drawn) [compound 21]
CD Result (NAC conformation observed): β-sheet/β- turn Transition | Activity (CD): No | Activity: active trials / trials: ⅓

CC(C)CCNCC(O)CS(=O)(=O)O (stereo not drawn) [compound 33]
CD Result (NAC conformation observed): Random Coil β-sheet/β- turn | Activity (CD): Yes | Activity: active trials / trials: ½

O=S(=O)(O)CC(O)CNC1C2CC3CC(C2)CC1C3 (stereo not drawn) [compound 25]
CD Result (NAC conformation observed): Random Coil | Activity (CD): Yes | Activity: active trials / trials: 2/2

CC(CCNC12C[C@H]3C[C@@H](C1)C[C@@H](C2)C3)S(=O)(=O)O (stereo partly drawn) [compound 23]
CD Result (NAC conformation observed): Random Coil β-sheet | Activity (CD): Yes | Activity: active trials / trials: ½

O=S(=O)(O)CC(O)CNC12C[C@H]3C[C@@H](C1)C[C@@H](C2)C3 (stereo partly drawn) [compound 24]
CD Result (NAC conformation observed): Random Coil | Activity (CD): Yes | Activity: active trials / trials: 2/2

CC1CC(NCCCS(=O)(=O)O)CC(C)(C)C1 (stereo not drawn) [compound 34]
CD Result (NAC conformation observed): Random Coil β-sheet | Activity (CD): Yes | Activity: active trials / trials: ½

O=C[C@@H](Cc1ccccc1)N(O)CCCS(=O)(=O)O [compound 37]
CD Result (NAC conformation observed): β-sheet Transition | Activity (CD): Yes | Activity: active trials / trials: ½

O=S(=O)(O)CCC[N+]12CCC(CC1)CC2 [compound 32]
CD Result (NAC conformation observed): β-sheet/β- turn Random coil | Activity (CD): No | Activity: active trials / trials: ¼

O=S(=O)(O)CCCNCCc1c[nH]c2ccccc12 [compound 17]
CD Result (NAC conformation observed): β-turn Transition | Activity (CD): No | Activity: active trials / trials: ⅓

O=S(=O)(O)CCCNC12C[C@H]3C[C@@H](C1)C[C@@H](C2)C3 [compound 26]
CD Result (NAC conformation observed): Transition β-turn | Activity (CD): Yes | Activity: active trials / trials: ½

CC(CC[N+]12CCC(CC1)CC2)S(=O)(=O)O (stereo not drawn) [compound 29]
CD Result (NAC conformation observed): β-turn | Activity (CD): No | Activity: active trials / trials: 0/3

CC(C)(C)C1CCC(NCCCS(=O)(=O)O)CC1 (stereo not drawn) [compound 35]
CD Result (NAC conformation observed): β-turn | Activity (CD): No | Activity: active trials / trials: 0/2

CCCCCCNCCCS(=O)(=O)O [compound 20]
CD Result (NAC conformation observed): β-turn | Activity (CD): No | Activity: active trials / trials: 0/2

CC(C)(C)NCCCS(C)(=O)=O [compound 19]
CD Result (NAC conformation observed): Random Coil β-turn | Activity (CD): Yes | Activity: active trials / trials: ½

CC(C)(C)NCCCCS(=O)(=O)O [compound 28]
CD Result (NAC conformation observed): β-turn/β- sheet | Activity (CD): No | Activity: active trials / trials: 0/3

O=C[C@H](Cc1ccccc1)NCCCS(=O)(=O)O [compound 36]
CD Result (NAC conformation observed): β-sheet | Activity (CD): No | Activity: active trials / trials: 0/1

CCCC(CO)NCCC(C)S(=O)(=O)O (stereo not drawn) [compound 27]
CD Result (NAC conformation observed): β-sheet/β- turn | Activity (CD): No | Activity: active trials / trials: 0/2
